≈ marks a conversion by molar mass, not a printed value. Read-outs that look alike come from different tables or passages of the source. One block for each compound: values may come before it.
Key:
S. aureus = experiment: E-test susceptibility; format: cell-based, Staphylococcus aureus
Acinetobacter = experiment: Disk diffusion; format: cell-based; conditions: 37 isolates selected as resistant to beta-lactams
nontyphoidal Salmonella = experiment: Agar dilution, isolates from chickens 1998–2004; format: cell-based, Salmonella spp.
K. pneumoniae [1] = experiment: MIC; format: cell-based, Klebsiella pneumoniae; conditions: Klebsiella pneumoniae
[2] = test system: inducible Enterobacteriaceae; experiment: SMART 2003, intraabdominal isolates; format: cell-based
Enterobacteriaceae = experiment: SMART 2003 Europe, microdilution; format: cell-based; conditions: 1948 isolates
E. coli [3] = experiment: SMART 2003 Europe, microdilution; format: cell-based, Escherichia coli; conditions: 1106 isolates
Klebsiella = experiment: SMART 2003 Europe, microdilution; format: cell-based, Klebsiella spp.; conditions: 341 isolates
S. pneumoniae (SPN) = experiment: NCCLS broth microdilution, fluoroquinolones 1999–2004; format: cell-based, Streptococcus pneumoniae; conditions: for MIC50 / MIC90: Streptococcus pneumoniae
E. coli [4] = experiment: E-test susceptibility; format: cell-based, Escherichia coli
K. pneumoniae [5] = experiment: E-test susceptibility; format: cell-based, Klebsiella pneumoniae
K. oxytoca = experiment: E-test susceptibility; format: cell-based, Klebsiella oxytoca
Enterobacter spp = experiment: E-test susceptibility; format: cell-based
H.influenzae = experiment: Broth microdilution; format: cell-based, Haemophilus influenzae; conditions: for %Sus: NCCLS
S. pneumoniae [6] = experiment: Broth microdilution; format: cell-based, Streptococcus pneumoniae; conditions: for %Sus: NCCLS breakpoints (Amox/Clav 2/1 mcg/mL)
PRSP = experiment: Broth microdilution; format: cell-based, Streptococcus pneumoniae; conditions: for %Sus: NCCLS breakpoints (Amox/Clav 2/1 mcg/mL)
ERSP = experiment: Broth microdilution; format: cell-based, Streptococcus pneumoniae; conditions: for %Sus: NCCLS breakpoints (Amox/Clav 2/1 mcg/mL)
S. pneumoniae [7] = experiment: MIC of invasive strains, Saint George Hospital 2001–2004; format: cell-based, Streptococcus pneumoniae
[8] = test system: Salmonella serotype Enteritidis; experiment: Disk diffusion, food isolates Spain; format: cell-based; conditions: n = 96
[9] = test system: Salmonella serotype Typhimurium; experiment: Disk diffusion, food isolates Spain; format: cell-based; conditions: n = 53
[10] = test system: Salmonella, other 49 serotypes; experiment: Disk diffusion, food isolates Spain; format: cell-based; conditions: n = 115
[11] = test system: viridans group streptococci (VGS); experiment: MIC; format: cell-based; conditions: 107 strains
Escherichia coli = experiment: Vitek 2 susceptibility, urine isolates of children; format: cell-based
[12] = ICU, SRGA breakpoints, tigecycline tentative S ≤2 μg/ml

Compound: CC(=O)O[C@H]1C[C@@]2(C)[C@@H](C[C@@H](O)[C@H]3[C@@]4(C)CC[C@@H](O)[C@@H](C)[C@@H]4CC[C@@]32C)/C1=C(\CCC=C(C)C)C(=O)O [fusidic acid]
Susceptibility (S. aureus; [12]): 91%
Susceptibility (S. aureus; non-ICU): 93%

Compound: CCn1cc(C(=O)O)c(=O)c2cc(F)c(N3CCNC(C)C3)c(F)c21 (stereo not shown) [lomefloxacin]
resistant isolates (Acinetobacter): 100.0%

Compound: trimethoprim/sulfadiazine [TS]
resistance (nontyphoidal Salmonella; Belgian collection (caecal samples; Belgium, France, Netherlands)): 18%
resistance (nontyphoidal Salmonella; Germany (carcass meat)): 12%

Compound: C[C@@H](O)[C@H]1C(=O)N2C(C(=O)O)=C(S[C@@H]3CN[C@H](C(=O)Nc4cccc(C(=O)O)c4)C3)[C@H](C)[C@H]12 [ertapenem]
MIC (K. pneumoniae [1]): > 16 µg/mL
% susceptible ([2]; A/P (N = 200)): 98%
% susceptible ([2]; EU (N = 354)): 98%
% susceptible ([2]; LA (N=113)): 91%
% susceptible ([2]; NA (N = 163)): 94%
per cent susceptible (Enterobacteriaceae): 99%
per cent susceptible (E. coli [3]): >99%
per cent susceptible (Klebsiella): 99%

MIC range (S. pneumoniae (SPN)): 0.25 to 2 µg/mL
MIC50 (S. pneumoniae (SPN)): 0.5 µg/mL (≈ 1.28 µM)
MIC90 (S. pneumoniae (SPN)): 1 µg/mL (≈ 2.57 µM)
MIC50 (S. pneumoniae (SPN); 1999 (554)): ≤ 0.03 µg/mL
MIC90 (S. pneumoniae (SPN); 1999 (554)): ≤ 0.03 µg/mL
MIC50 (S. pneumoniae (SPN); 2000 (508)): ≤ 0.03 µg/mL
MIC90 (S. pneumoniae (SPN); 2000 (508)): ≤ 0.03 µg/mL
MIC50 (S. pneumoniae (SPN); 2001 (1.435)): 0.016 µg/mL (≈ 0.0411 µM)
MIC90 (S. pneumoniae (SPN); 2001 (1.435)): 0.03 µg/mL (≈ 0.077 µM)
MIC50 (S. pneumoniae (SPN); 2002 (1.502)): 0.016 µg/mL (≈ 0.0411 µM)
MIC90 (S. pneumoniae (SPN); 2002 (1.502)): 0.03 µg/mL (≈ 0.077 µM)
MIC50 (S. pneumoniae (SPN); 2003 (890)): 0.016 µg/mL (≈ 0.0411 µM)
MIC90 (S. pneumoniae (SPN); 2003 (890)): 0.03 µg/mL (≈ 0.077 µM)
MIC50 (S. pneumoniae (SPN); 2004 (1.003)): 0.016 µg/mL (≈ 0.0411 µM)
MIC90 (S. pneumoniae (SPN); 2004 (1.003)): 0.03 µg/mL (≈ 0.077 µM)
MIC50 (S. pneumoniae (SPN); All years (5.892)): 0.016 µg/mL (≈ 0.0411 µM)
MIC90 (S. pneumoniae (SPN); All years (5.892)): 0.03 µg/mL (≈ 0.077 µM)
MIC90 (S. pneumoniae (SPN); read-out: MIC90 during the six years, 1999–2004): 0.03 µg/mL (≈ 0.077 µM)
Compound: CO/N=C1\CN(c2nc3c(cc2F)c(=O)c(C(=O)O)cn3C2CC2)CC1CN (stereo not shown) [GEMI, gemifloxacin]
% I (S. pneumoniae (SPN); 1999 (554)): 0.4%
% S (S. pneumoniae (SPN); 1999 (554)): 99.6%
%R (S. pneumoniae (SPN); 1999 (554)): 0.0%
% I (S. pneumoniae (SPN); 2000 (508)): 0.2%
% S (S. pneumoniae (SPN); 2000 (508)): 99.6%
%R (S. pneumoniae (SPN); 2000 (508)): 0.2%
% I (S. pneumoniae (SPN); 2001 (1.435)): 0.3%
% S (S. pneumoniae (SPN); 2001 (1.435)): 99.4%
%R (S. pneumoniae (SPN); 2001 (1.435)): 0.3%
% I (S. pneumoniae (SPN); 2002 (1.502)): 0.3%
% S (S. pneumoniae (SPN); 2002 (1.502)): 99.5%
%R (S. pneumoniae (SPN); 2002 (1.502)): 0.2%
% I (S. pneumoniae (SPN); 2003 (890)): 0.0%
% S (S. pneumoniae (SPN); 2003 (890)): 100.0%
%R (S. pneumoniae (SPN); 2003 (890)): 0.0%
% I (S. pneumoniae (SPN); 2004 (1.003)): 0.7%
% S (S. pneumoniae (SPN); 2004 (1.003)): 99.2%
%R (S. pneumoniae (SPN); 2004 (1.003)): 0.1%
% I (S. pneumoniae (SPN); All years (5.892)): 0.3%
% S (S. pneumoniae (SPN); All years (5.892)): 99.5%
%R (S. pneumoniae (SPN); All years (5.892)): 0.2%

Compound: CO[C@@]1(NC(=O)C(C(=O)O)c2ccc(O)cc2)C(=O)N2C(C(=O)O)=C(CSc3nnnn3C)CO[C@@H]21 (stereo partly shown) [moxalactam]
resistant isolates (Acinetobacter): 75.7%

Compound: CO/N=C(\C(=O)N[C@@H]1C(=O)N2C(C(=O)[O-])=C(C[N+]3(C)CCCC3)CS[C@H]12)c1csc(N)n1 [cefepime]
MIC (K. pneumoniae [1]): > 64 µg/mL
resistant isolates (Acinetobacter): 21.6%
% susceptible ([2]; A/P (N = 200)): 89%
% susceptible ([2]; EU (N = 354)): 97%
% susceptible ([2]; LA (N=113)): 88%
% susceptible ([2]; NA (N = 163)): 92%
per cent susceptible (Enterobacteriaceae): 96%
per cent susceptible (E. coli [3]): 96%
per cent susceptible (Klebsiella): 94%
Susceptible isolates (E. coli [4]; [12]): 98%
Susceptible isolates (E. coli [4]; non ICU): 99%
Susceptible isolates (K. pneumoniae [5]; ICU): 98%
Susceptible isolates (K. pneumoniae [5]; non ICU): 100%
Susceptible isolates (K. oxytoca; ICU): 100%
Susceptible isolates (K. oxytoca; non ICU): 96%
Susceptible isolates (Enterobacter spp; ICU): 84%
Susceptible isolates (Enterobacter spp; non ICU): 92%

MIC90 (H.influenzae): 2 µg/mL (≈ 4.71 µM)
MIC90 (S. pneumoniae [6]): 8 µg/mL (≈ 18.9 µM)
MIC90 (PRSP): 8 µg/mL (≈ 18.9 µM)
MIC90 (ERSP): 8 µg/mL (≈ 18.9 µM)
Compound: CO/N=C(\C(=O)N[C@@H]1C(=O)N2C(C(=O)O)=C(COC(N)=O)CS[C@H]12)c1ccco1 [Cefuroxime, cefuroxim]
%Sus (H.influenzae): 96.7%
%Sus (S. pneumoniae [6]): 65.2%
%Sus (PRSP): 0.7%
%Sus (ERSP): 26.0%
% S (S. pneumoniae [7]): 95.2%
%R (S. pneumoniae [7]): 4.8%
Susceptible isolates (E. coli [4]; [12]): 92%
Susceptible isolates (E. coli [4]; non ICU): 94%

Compound: CCN[C@@H]1C[C@H](N)[C@@H](O[C@H]2OC(CN)=CC[C@H]2N)[C@H](O)[C@H]1O[C@H]1OC[C@](C)(O)[C@H](NC)[C@H]1O [netilmicin]
resistance rate (NCCLS M100-S13) [8]: 1%
resistance rate (NCCLS M100-S13) [9]: 4%
resistance rate (NCCLS M100-S13) [10]: 0%
resistant isolates (Acinetobacter): 5.4%

Compound: [H]/N=C(/N)N[C@H]1[C@H](O)[C@@H](O)[C@H](O[C@@H]2O[C@@H](C)[C@](O)(C=O)[C@H]2O[C@@H]2O[C@@H](CO)[C@H](O)[C@@H](O)[C@@H]2NC)[C@@H](N/C(N)=N\[H])[C@@H]1O [streptomycin]
high-level resistance [11]: 10.3%
resistance rate (NCCLS M100-S13) [8]: 1%
resistance rate (NCCLS M100-S13) [9]: 53%
resistance rate (NCCLS M100-S13) [10]: 59%

Compound: CC(=O)OCC1=C(C(=O)O)N2C(=O)[C@@H](NC(=O)Cc3cccs3)[C@H]2SC1 [cefalothin]
susceptibility rate (Escherichia coli; paediatric surgical unit (PSU)): 19%
susceptibility rate (Escherichia coli; paediatric units (PU)): 66%

MIC90 (H.influenzae): > 4 µg/mL
MIC90 (S. pneumoniae [6]): 8 µg/mL
MIC90 (PRSP): > 8 µg/mL
MIC90 (ERSP): 8 µg/mL
Compound: Trimethoprim/sulfamethoxazole [TMP/SMX]
%Sus (H.influenzae): 76.5%
%Sus (S. pneumoniae [6]): 50.2%
%Sus (PRSP): 13.8%
%Sus (ERSP): 24.5%

Source: paper PMC7129073 (Clinical Microbiology and Infection, 2015)
